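Interpolation was linear, between the two tested concentrations surrounding the appropriate level; five concentrations were tested over 48 hours in 96-well plates. At the GI50, growth is halved.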 Calls of active or inactive are those of the source. Rule as the data show it: active = GI50 up to about 1.1 µM and inactive = higher.
Columns and labels:
Test in all cases: inhibition of tumour cell growth, NCI panel, 48 h
MDA-MB-231 = test system: MDA-MB-231
NCI-H23 = test system: NCI-H23
HT-29 = test system: HT-29
TK-10 = test system: TK-10
Hs-578T = test system: Hs-578T
HCC 2998 = test system: HCC 2998
SNB-75 = test system: SNB-75
A498 = test system: A498
SF-539 = test system: SF-539
UACC-62 = test system: UACC-62
OVCAR-4 = test system: OVCAR-4
SN12C = test system: SN12C
MOLT-4 = test system: MOLT-4
CCRF-CEM = test system: CCRF-CEM
OVCAR-3 = test system: OVCAR-3
UO-31 = test system: UO-31
HCT-116 = test system: HCT-116
ACHN = test system: ACHN
MDA-MB-435 = test system: MDA-MB-435
EKVX = test system: EKVX

Measured: GI50

Cc1ccc(-c2n[nH]c(=O)n2N)cc1
inactive: MDA-MB-231 > 100 µM | NCI-H23 > 100 µM | HT-29 > 100 µM | TK-10 > 100 µM | Hs-578T > 100 µM | HCC 2998 > 100 µM | SNB-75 48 µM | A498 > 100 µM | SF-539 > 100 µM | UACC-62 > 100 µM | OVCAR-4 > 100 µM | SN12C > 100 µM | MOLT-4 > 100 µM | CCRF-CEM > 100 µM | OVCAR-3 > 100 µM | UO-31 > 100 µM | HCT-116 > 100 µM | ACHN > 100 µM | MDA-MB-435 > 100 µM | EKVX > 100 µM

C=CCC(CNC(=O)OCc1ccccc1)OC(=O)OCc1ccccc1 (stereo not given)
inactive: MDA-MB-231 > 100 µM | NCI-H23 43.9 µM | HT-29 36.3 µM | TK-10 > 100 µM | Hs-578T > 100 µM | HCC 2998 > 100 µM | SNB-75 > 100 µM | A498 > 100 µM | SF-539 > 100 µM | UACC-62 93.5 µM | OVCAR-4 69.8 µM | SN12C > 100 µM | MOLT-4 25.8 µM | CCRF-CEM 47.4 µM | OVCAR-3 63.2 µM | UO-31 > 100 µM | HCT-116 51.9 µM | ACHN > 100 µM | MDA-MB-435 57 µM | EKVX 33.4 µM

— ChEMBL document CHEMBL1201862, “PubChem BioAssay data set” (2004)
